Test results: patent US20120214802A1, “PYRROLIDINE COMPOUNDS WHICH INHIBIT BETA-SECRETASE ACTIVITY AND METHODS OF USE THEREOF” (priority 2009, published 2012)

Molecular target: memapsin 2 (Homo sapiens, UniProt P56817)
Assay: Inhibition of memapsin 2 beta-secretase activity (fluorogenic substrate FS-2)
Assay type: biochemical
Settings: pH 4, 37° C., read-out: M2 Ki
Method: Potency of compounds were determined by measurement of their inhibition of memapsin 2 activity toward a fluorescent substrate. Kinetic inhibition experiments were performed using the procedure as described in Ermolieff, et al. (Biochemistry 39:12450-12456 (2000), the teachings of which are incorporated hereby in their entirety). Briefly, assays were performed at pH 4, 37° C., by pre-incubation of memapsin 2 enzyme with compound for 20 minutes. Activity measurements were initiated by addition of a fluorogenic substrate FS-2 (Bachem Americas, Torrance, Calif.) MCA-SEVNLDAEFR-DNP (SEQ ID NO.: 2). The substrate was derived from 10 amino acids of the human amyloid precursor protein (APP), with the Swedish variant amino acids at the beta-secretase cleavage site. The terminal amino acid was modified from arginine to lysine to facilitate derivatization with a functional group for detection by autofluorescence. The amino acid sequence of the “core” peptide of the substrate is SEVNLDAEFK (SEQ ID NO.: 3). The amino terminus was derivatized with (7-methoxycoumarin-4-yl)acetyl (MCA), and the epsilon amine of the lysine side chain of the terminal residue (K in sequence SEVNLDAEFK (SEQ ID NO.: 3)) was derivatized with 2,4-dinitorphenyl (DNP).

Sequence of memapsin 2 (P56817 46-501): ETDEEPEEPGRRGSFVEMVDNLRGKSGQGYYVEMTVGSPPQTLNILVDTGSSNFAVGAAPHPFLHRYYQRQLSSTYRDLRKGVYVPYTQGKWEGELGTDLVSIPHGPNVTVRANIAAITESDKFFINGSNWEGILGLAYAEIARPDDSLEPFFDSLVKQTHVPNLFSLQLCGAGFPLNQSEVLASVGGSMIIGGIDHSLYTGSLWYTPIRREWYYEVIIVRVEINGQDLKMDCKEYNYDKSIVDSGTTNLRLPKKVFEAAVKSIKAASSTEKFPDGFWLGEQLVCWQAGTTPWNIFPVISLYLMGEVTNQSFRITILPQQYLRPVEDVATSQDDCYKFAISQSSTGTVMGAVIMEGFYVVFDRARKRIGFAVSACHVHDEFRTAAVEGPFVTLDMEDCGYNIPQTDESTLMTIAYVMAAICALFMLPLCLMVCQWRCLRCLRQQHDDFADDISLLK

| SMILES | Ki [µM] |
| --- | --- |
| Cc1coc([C@H]2CCCN2C(=O)c2cccc(C(=O)N[C@@H](Cc3ccccc3)[C@H](O)[C@H]3CCCN3C(=O)OC(C)(C)C)c2)n1 [1-3, (R)-tert-butyl 2-((1S,2S)-1-hydroxy-2-(3-((R)-2-(4-methyloxazol-2-yl)pyrrolidine-1-carbonyl)benzamido)-3-phenylpropyl)pyrrolidine-1-carboxylate] | > 0.75 |
| Cc1csc([C@H]2CCCN2C(=O)c2cccc(C(=O)N[C@@H](Cc3ccccc3)[C@H](O)[C@H]3CC[C@@H](c4ccccc4)N3)c2)n1 [1-29, N-((1R,2S)-1-hydroxy-3-phenyl-1-((2R,5S)-5-phenylpyrrolidin-2-yl)propan-2-yl)-3-((R)-2-(4-methylthiazol-2-yl)pyrrolidine-1-carbonyl)benzamide] | > 0.75 |
| Cc1csc(CN(C)C(=O)c2cc(C(=O)N[C@@H](Cc3ccccc3)[C@H](O)[C@H]3CCCN3)cc(-c3ccc(F)cc3F)c2)n1 [1-30, 2′,4′-difluoro-N3-((1R,2S)-1-hydroxy-3-phenyl-1-((R)-pyrrolidin-2-yl)propan-2-yl)-N5-methyl-N5-((4-methylthiazol-2-yl)methyl)biphenyl-3,5-dicarboxamide] | < 0.25 |
| Cc1csc([C@H]2CCCN2C(=O)c2cccc(C(=O)N[C@@H](Cc3ccccc3)[C@H](O)[C@@H]3CC[C@H](c4ccccc4)N3)c2)n1 [1-31, N-((1R,2S)-1-hydroxy-3-phenyl-1-((2S,5R)-5-phenylpyrrolidin-2-yl)propan-2-yl)-3-((R)-2-(4-methylthiazol-2-yl)pyrrolidine-1-carbonyl)benzamide] | > 0.75 |
| Cc1csc([C@H]2CCCN2C(=O)c2cc(C(=O)N[C@@H](Cc3ccccc3)[C@H](O)[C@H]3C[C@H](F)CN3)cc(-c3ncco3)c2)n1 [1-38, N-((1R,2S)-1-((2R,4S)-4-fluoropyrrolidin-2-yl)-1-hydroxy-3-phenylpropan-2-yl)-3-((R)-2-(4-methylthiazol-2-yl)pyrrolidine-1-carbonyl)-5-(oxazol-2-yl)benzamide] | < 0.25 |
| Cc1csc(CN(C)C(=O)c2cccc(C(=O)N[C@@H](Cc3cccc(F)c3)[C@H](O)[C@H]3CCCN3)c2)n1 [1-54, N1-((1R,2S)-3-(3-fluorophenyl)-1-hydroxy-1-((R)-pyrrolidin-2-yl)propan-2-yl)-N3-methyl-N3-((4-methylthiazol-2-yl)methyl)isophthalamide] | 0.25 to 0.75 |
| Cc1csc([C@H]2CCCN2C(=O)c2cc(C(=O)N[C@@H](Cc3ccccc3)[C@H](O)[C@H]3CCCN3)cc([N+](=O)[O-])c2)n1 [1-55, N-((1R,2S)-1-hydroxy-3-phenyl-1-((R)-pyrrolidin-2-yl)propan-2-yl)-3-((R)-2-(4-methylthiazol-2-yl)pyrrolidine-1-carbonyl)-5-nitrobenzamide] | < 0.25 |
| Cc1csc([C@H]2CCCN2C(=O)c2cc(Cl)cc(C(=O)N[C@@H](Cc3ccccc3)[C@H](O)[C@H]3CCCN3)c2)n1 [1-56, 3-chloro-N-((1R,2S)-1-hydroxy-3-phenyl-1-((R)-pyrrolidin-2-yl)propan-2-yl)-5-((R)-2-(4-methylthiazol-2-yl)pyrrolidine-1-carbonyl)benzamide] | < 0.25 |
| Cc1csc([C@H]2CCCN2C(=O)c2cccc(C(=O)N[C@@H](Cc3ccccc3)[C@H](O)[C@@H]3NCCC3(F)F)c2)n1 [1-57, N-((1S,2S)-1-((S)-3,3-difluoropyrrolidin-2-yl)-1-hydroxy-3-phenylpropan-2-yl)-3-((R)-2-(4-methylthiazol-2-yl)pyrrolidine-1-carbonyl)benzamide] | < 0.25 |
| Cc1csc([C@H]2CCCN2C(=O)c2cc(C(=O)N[C@@H](Cc3ccccc3)[C@H](O)[C@H]3CC[C@@H](C)N3)cc(-n3cccc3)c2)n1 [1-58, N-((1R,2S)-1-hydroxy-1-((2R,5R)-5-methylpyrrolidin-2-yl)-3-phenylpropan-2-yl)-3-((R)-2-(4-methylthiazol-2-yl)pyrrolidine-1-carbonyl)-5-(1H-pyrrol-1-yl)benzamide] | 0.25 to 0.75 |
| Cc1csc([C@H]2CCCN2C(=O)c2cc(C(=O)N[C@@H](Cc3ccccc3)[C@H](O)[C@H]3C[C@H](F)CN3)cc(-n3cccc3)c2)n1 [1-59, N-((1R,2S)-1-((2R,4S)-4-fluoropyrrolidin-2-yl)-1-hydroxy-3-phenylpropan-2-yl)-3-((R)-2-(4-methylthiazol-2-yl)pyrrolidine-1-carbonyl)-5-(1H-pyrrol-1-yl)benzamide] | < 0.25 |
| Cc1csc(CN(C)C(=O)c2cccc(C(=O)N[C@@H](Cc3ccccc3)[C@H](O)[C@H]3C[C@H](F)CN3)c2)n1 [1-60, N1-((1R,2S)-1-((2R,4S)-4-fluoropyrrolidin-2-yl)-1-hydroxy-3-phenylpropan-2-yl)-N3-methyl-N3-((4-methylthiazol-2-yl)methyl)isophthalamide] | > 0.75 |
| Cc1csc([C@H]2CCCN2C(=O)c2cc(C(=O)N[C@@H](Cc3cc(F)cc(F)c3)[C@H](O)[C@H]3CCCN3)ccn2)n1 [1-61, N-((1R,2S)-3-(3,5-difluorophenyl)-1-hydroxy-1-((R)-pyrrolidin-2-yl)propan-2-yl)-2-((R)-2-(4-methylthiazol-2-yl)pyrrolidine-1-carbonyl)isonicotinamide] | 0.25 to 0.75 |
| Cc1csc([C@H]2CCCN2C(=O)c2cc(C(=O)N[C@@H](Cc3cc(F)cc(F)c3)[C@H](O)[C@H]3CCCN3)cc(C3CC3)c2)n1 [1-62, 3-cyclopropyl-N-((1R,2S)-3-(3,5-difluorophenyl)-1-hydroxy-1-((R)-pyrrolidin-2-yl)propan-2-yl)-5-((R)-2-(4-methylthiazol-2-yl)pyrrolidine-1-carbonyl)benzamide] | < 0.25 |
| Cc1csc([C@H]2CCCN2C(=O)c2cc(C(=O)N[C@@H](Cc3cc(F)cc(F)c3)[C@H](O)[C@H]3CCCN3)cc(-c3cnccn3)c2)n1 [1-63, N-((1R,2S)-3-(3,5-difluorophenyl)-1-hydroxy-1-((R)-pyrrolidin-2-yl)propan-2-yl)-3-((R)-2-(4-methylthiazol-2-yl)pyrrolidine-1-carbonyl)-5-(pyrazin-2-yl)benzamide] | < 0.25 |
| Cc1csc([C@H]2CCCN2C(=O)c2cccc(C(=O)N[C@@H](Cc3ccc(F)cc3)[C@H](O)[C@H]3CCCN3)c2)n1 [1-65, N-((1R,2S)-3-(4-fluorophenyl)-1-hydroxy-1-((R)-pyrrolidin-2-yl)propan-2-yl)-3-((R)-2-(4-methylthiazol-2-yl)pyrrolidine-1-carbonyl)benzamide] | 0.25 to 0.75 |
| Cc1csc(CN(C)C(=O)c2cccc(C(=O)N[C@@H](Cc3ccc(F)cc3)[C@H](O)[C@H]3CCCN3)c2)n1 [1-66, N1-((1R,2S)-3-(4-fluorophenyl)-1-hydroxy-1-((R)-pyrrolidin-2-yl)propan-2-yl)-N3-methyl-N3-((4-methylthiazol-2-yl)methyl)isophthalamide] | > 0.75 |
| Cc1csc([C@H]2CCCN2C(=O)c2cccc(C(=O)N[C@@H](Cc3ccccc3)[C@H](O)[C@H]3CCC(C)(C)N3)c2)n1 [1-67, N-((1R,2S)-1-((R)-5,5-dimethylpyrrolidin-2-yl)-1-hydroxy-3-phenylpropan-2-yl)-3-((R)-2-(4-methylthiazol-2-yl)pyrrolidine-1-carbonyl)benzamide] | > 0.75 |
| Cc1csc([C@H]2CCCN2C(=O)c2cc(C(=O)N[C@@H](Cc3ccccc3)[C@H](O)[C@H]3CCCN3)cc(S(C)(=O)=O)c2)n1 [1-68, N-((1R,2S)-1-hydroxy-3-phenyl-1-((R)-pyrrolidin-2-yl)propan-2-yl)-3-(methylsulfonyl)-5-((R)-2-(4-methylthiazol-2-yl)pyrrolidine-1-carbonyl)benzamide] | < 0.25 |
